The source of these data is ChEMBL document CHEMBL1177823, “7',8'-Dihydroobolactone, a typanocidal alpha-pyrone from the rainforest tree Cryptocarya obovata” (Bioorg Med Chem Lett, 2010).

The test system of data set [1] is Trypanosoma brucei brucei. The experiment in a line: Antitrypanosomal activity against Trypanosoma brucei brucei. It counts as functional, organism-based.
Data set [2] can be described thus: Cytotoxicity against […] cells at 70 uM after 72 hrs by Alamar blue assay. Particulars: human, HEK293 cells; read-out: INH. It counts as cell-based. In general terms: The colour change of resazurin is a common sign of viable cells or microbes.
The next data set concerns HeLa. The experiment in a line: Cytotoxicity against human HeLa cells after 72 hrs by Alamar blue assay. In kind it is functional, cell-based.
In the next data set the test system is HEK293. The experiment in a line: Cytotoxicity against […] cells after 72 hrs by Alamar blue assay. In kind it is cell-based. Particulars: Homo sapiens, HEK293, 72 h.
Data set [3] in a line: Selectivity index, ratio of IC50 for HEK293 cells to IC50 for Trypanosoma brucei brucei. It counts as toxicity, cell-based. Conditions: human, HEK293 cells versus Trypanosoma brucei brucei; read-out: Selectivity Index.
A further data set has as its system A549. The experiment in a line: Cytotoxicity against human A549 cells after 72 hrs by Alamar blue assay. Conditions: A549, 72 h. It counts as functional, cell-based.
Data set [4] deals with Trypanosoma brucei brucei. Nature of the data set: Antitrypanosomal activity against Trypanosoma brucei brucei at 167 uM. In kind it is functional.
Another data set concerns MCF7. Nature of the data set: Cytotoxicity against human MCF7 cells after 72 hrs by Alamar blue assay. Conditions: MCF7, 72 h. It counts as functional, cell-based.

SMILES strings stand for the structures. A value given as a limit tells only on which side of the number the result lay.

By IC50 is commonly meant the concentration needed to halve the response being measured. A higher IC50 goes with a need for much substance. The term inhibition denotes the relative decrease from the control value, in per cent. Low readings indicate a weak effect, high ones a strong effect.

Turning to `N=C(N)c1ccc(OCCCCCOc2ccc(C(=N)N)cc2)cc1` [PENTAMIDINE], the half-maximal inhibitory concentration (IC50) in data set [1] was found to be 0.007 µM. Moreover, the cytotoxicity at 72 h, 70 µM in data set [2] came out at 58.3%.

Consider `O=C1C=C(CCc2ccccc2)O[C@H](C[C@H]2CC=CC(=O)O2)C1`, for which the IC50 in the data set with HeLa is 43 µM; with HEK293, 20.4 µM; in data set [1] it was 2.8 µM; in the data set with A549, 78 µM. The selectivity ratio in data set [3] is 7.4.

Regarding `COc1ccc(C[C@H](N)C(=O)N[C@H]2[C@@H](O)[C@H](n3cnc4c(N(C)C)ncnc43)O[C@@H]2CO)cc1` [PUROMYCIN], the figures for the IC50 (in the data set with HEK293; in data set [1]) were 0.42 µM and 0.037 µM, respectively.

As to `O=c1ccc2cc3ccoc3cc2o1` [PSORALEN], the IC50 with HEK293 was above 167 µM. Also, at 167 µM the inhibition in data set [4] was 50.3%.

Regarding `N=C(N)c1ccc(/N=N/Nc2ccc(C(=N)N)cc2)cc1` [DIMINAZENE], the IC50 in the data set on HEK293 was above 80 µM; in data set [1], 0.025 µM.

On to `O=C1C=C(/C=C/c2ccccc2)O[C@H](C[C@H]2CC=CC(=O)O2)C1` [OBOLACTONE], for which the IC50 in the data set on HeLa came to 24 µM; in the data set with MCF7, 32 µM; in the data set on HEK293 it was 13.2 µM; in data set [1] it was 5.3 µM; with A549, 43 µM. In data set [3], the selectivity ratio stood at 2.5.
